In the kinase profiling compilation of Christmann-Franck et al. (2016):

Columns and labels:
Assay in all cases: KINOMEscan competition binding
Settings in all cases: compound 10.0 µM
EPHA7 (human) = EPHA7 (human) (UniProt Q15375)
MLTK (human) = MLTK (human) (UniProt Q9NYL2)
FGFR4 (human) = FGFR4 (human) (UniProt P22455)
MAP2K7 (human) = MAP2K7 (human) (UniProt O14733)
MAP3K10 (human) = MAP3K10 (human) (UniProt Q02779)
CPK1 (P.falciparum) = tested on: CPK1 (P.falciparum)
MARK1 (human) = MARK1 (human) (UniProt Q9P0L2)
OXSR1 (human) = OXSR1 (human) (UniProt O95747)
[1] = tested on: FGFR3 (human), P22607 [G697C]
ACVR1B (human) = ACVR1B (human) (UniProt P36896)
MAPK7 (human) = MAPK7 (human) (UniProt Q13164)
RIOK2 (human) = RIOK2 (human) (UniProt Q9BVS4)
STK3 (human) = STK3 (human) (UniProt Q13188)
PHKG2 (human) = PHKG2 (human) (UniProt P15735)
PIK3C2B (human) = PIK3C2B (human) (UniProt O00750)
NEK9 (human) = NEK9 (human) (UniProt Q8TD19)
BRSK1 (human) = BRSK1 (human) (UniProt Q8TDC3)
TIE1 (human) = TIE1 (human) (UniProt P35590)
FLT1 (human) = FLT1 (human) (UniProt P17948)
PIP4K2C (human) = PIP4K2C (human) (UniProt Q8TBX8)
[2] = tested on: PIK3CA (human), P42336 [E542K]
CAMKK1 (human) = CAMKK1 (human) (UniProt Q8N5S9)
TNK2 (human) = TNK2 (human) (UniProt Q07912)
MAPK12 (human) = MAPK12 (human) (UniProt P53778)
IRAK3 (human) = IRAK3 (human) (UniProt Q9Y616)
BMPR2 (human) = BMPR2 (human) (UniProt Q13873)
YSK4 (human) = YSK4 (human) (UniProt Q56UN5)
PLK2 (human) = PLK2 (human) (UniProt Q9NYY3)
MAP2K4 (human) = MAP2K4 (human) (UniProt P45985)
RIPK2 (human) = RIPK2 (human) (UniProt O43353)
DDR2 (human) = DDR2 (human) (UniProt Q16832)
CAMKK2 (human) = CAMKK2 (human) (UniProt Q96RR4)
PIK3CD (human) = PIK3CD (human) (UniProt O00329)
DAPK3 (human) = DAPK3 (human) (UniProt O43293)
PLK3 (human) = PLK3 (human) (UniProt Q9H4B4)
RPS6KA4 KD1 (human) = RPS6KA4 KD1 (human) (UniProt O75676)
GRK4 (human) = GRK4 (human) (UniProt P32298)
PAK6 (human) = PAK6 (human) (UniProt Q9NQU5)
[3] = tested on: BMX (human), P51813 [V600E]
SIK1 (human) = SIK1 (human) (UniProt P57059)

Sequence of MAPK7 (human) (Q13164 whole entry, looked up): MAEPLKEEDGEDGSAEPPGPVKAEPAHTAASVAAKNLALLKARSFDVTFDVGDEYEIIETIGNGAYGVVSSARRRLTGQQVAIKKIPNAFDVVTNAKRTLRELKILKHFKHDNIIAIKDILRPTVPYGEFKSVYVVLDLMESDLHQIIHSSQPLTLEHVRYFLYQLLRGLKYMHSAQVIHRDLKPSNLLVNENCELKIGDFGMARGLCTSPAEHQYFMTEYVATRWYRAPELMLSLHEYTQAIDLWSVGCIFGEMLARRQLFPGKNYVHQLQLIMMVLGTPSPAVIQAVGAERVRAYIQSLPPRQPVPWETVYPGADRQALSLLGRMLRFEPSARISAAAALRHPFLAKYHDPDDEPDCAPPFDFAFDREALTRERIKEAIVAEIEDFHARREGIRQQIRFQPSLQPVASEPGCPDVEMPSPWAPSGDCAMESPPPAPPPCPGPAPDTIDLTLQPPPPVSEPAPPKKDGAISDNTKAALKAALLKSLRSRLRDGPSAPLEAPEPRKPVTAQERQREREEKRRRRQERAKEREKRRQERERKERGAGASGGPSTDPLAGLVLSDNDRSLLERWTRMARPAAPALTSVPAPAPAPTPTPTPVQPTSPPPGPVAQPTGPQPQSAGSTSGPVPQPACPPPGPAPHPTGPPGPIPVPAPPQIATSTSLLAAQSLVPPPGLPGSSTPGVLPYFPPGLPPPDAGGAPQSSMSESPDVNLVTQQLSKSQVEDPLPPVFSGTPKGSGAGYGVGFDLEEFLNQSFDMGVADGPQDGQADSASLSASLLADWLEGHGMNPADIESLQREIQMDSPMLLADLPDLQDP
Sequence of OXSR1 (human) (O95747 whole entry, looked up): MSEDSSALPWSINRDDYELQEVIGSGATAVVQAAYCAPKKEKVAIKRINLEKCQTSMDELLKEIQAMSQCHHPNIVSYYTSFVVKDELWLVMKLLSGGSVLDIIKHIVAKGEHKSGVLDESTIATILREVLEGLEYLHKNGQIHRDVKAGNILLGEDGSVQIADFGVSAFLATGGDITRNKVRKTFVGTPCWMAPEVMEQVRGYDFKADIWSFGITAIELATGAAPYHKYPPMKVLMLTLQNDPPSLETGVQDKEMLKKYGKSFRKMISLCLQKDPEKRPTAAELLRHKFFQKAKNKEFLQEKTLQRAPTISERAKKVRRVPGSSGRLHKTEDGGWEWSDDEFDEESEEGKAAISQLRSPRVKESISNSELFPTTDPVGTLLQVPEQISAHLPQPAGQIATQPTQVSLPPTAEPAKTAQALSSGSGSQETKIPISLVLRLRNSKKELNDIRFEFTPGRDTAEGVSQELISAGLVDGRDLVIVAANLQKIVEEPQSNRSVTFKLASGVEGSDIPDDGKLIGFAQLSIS
Sequence of CAMKK1 (human) (Q8N5S9 whole entry, looked up): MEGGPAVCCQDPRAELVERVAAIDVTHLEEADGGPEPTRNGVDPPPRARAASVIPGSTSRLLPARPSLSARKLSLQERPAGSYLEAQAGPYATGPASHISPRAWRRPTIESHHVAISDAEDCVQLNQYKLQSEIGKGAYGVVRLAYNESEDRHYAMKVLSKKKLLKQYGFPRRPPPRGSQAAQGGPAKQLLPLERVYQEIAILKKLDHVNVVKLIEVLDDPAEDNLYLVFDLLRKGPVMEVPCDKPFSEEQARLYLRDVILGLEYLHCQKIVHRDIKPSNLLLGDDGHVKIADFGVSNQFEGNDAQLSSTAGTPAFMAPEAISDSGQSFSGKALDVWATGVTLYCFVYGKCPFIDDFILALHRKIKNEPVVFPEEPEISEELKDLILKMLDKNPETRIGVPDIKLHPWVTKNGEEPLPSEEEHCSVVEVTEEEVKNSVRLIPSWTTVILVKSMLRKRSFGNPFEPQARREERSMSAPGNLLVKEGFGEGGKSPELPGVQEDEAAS
Sequence of CAMKK2 (human) (Q96RR4 whole entry, looked up): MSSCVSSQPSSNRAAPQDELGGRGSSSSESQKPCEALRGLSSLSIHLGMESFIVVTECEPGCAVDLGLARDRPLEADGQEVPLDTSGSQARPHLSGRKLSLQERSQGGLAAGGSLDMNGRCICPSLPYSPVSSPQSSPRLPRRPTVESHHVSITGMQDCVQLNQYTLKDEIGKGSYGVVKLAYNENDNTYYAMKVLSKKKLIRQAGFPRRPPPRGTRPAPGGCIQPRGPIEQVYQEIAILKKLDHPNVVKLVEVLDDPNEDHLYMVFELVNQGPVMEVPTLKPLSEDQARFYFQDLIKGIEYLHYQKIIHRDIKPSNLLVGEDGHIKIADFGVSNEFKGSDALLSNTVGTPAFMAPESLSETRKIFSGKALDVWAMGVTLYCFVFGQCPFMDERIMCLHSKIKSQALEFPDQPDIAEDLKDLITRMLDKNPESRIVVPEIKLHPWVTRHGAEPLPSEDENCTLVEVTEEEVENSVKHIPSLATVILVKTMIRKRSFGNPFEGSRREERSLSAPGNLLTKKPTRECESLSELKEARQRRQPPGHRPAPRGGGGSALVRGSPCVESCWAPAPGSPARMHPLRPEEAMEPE
Sequence of MAP2K4 (human) (P45985 whole entry, looked up): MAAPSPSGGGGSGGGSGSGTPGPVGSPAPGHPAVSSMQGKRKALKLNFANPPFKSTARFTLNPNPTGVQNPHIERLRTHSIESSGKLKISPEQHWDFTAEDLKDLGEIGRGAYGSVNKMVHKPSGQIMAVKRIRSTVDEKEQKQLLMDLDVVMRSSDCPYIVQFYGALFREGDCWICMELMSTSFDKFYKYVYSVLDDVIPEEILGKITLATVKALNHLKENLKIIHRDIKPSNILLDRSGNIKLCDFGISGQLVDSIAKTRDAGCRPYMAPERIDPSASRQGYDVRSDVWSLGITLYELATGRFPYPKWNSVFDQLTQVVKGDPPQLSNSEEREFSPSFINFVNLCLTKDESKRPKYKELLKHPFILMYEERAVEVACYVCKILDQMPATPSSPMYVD
Sequence of YSK4 (human) (Q56UN5 whole entry, looked up): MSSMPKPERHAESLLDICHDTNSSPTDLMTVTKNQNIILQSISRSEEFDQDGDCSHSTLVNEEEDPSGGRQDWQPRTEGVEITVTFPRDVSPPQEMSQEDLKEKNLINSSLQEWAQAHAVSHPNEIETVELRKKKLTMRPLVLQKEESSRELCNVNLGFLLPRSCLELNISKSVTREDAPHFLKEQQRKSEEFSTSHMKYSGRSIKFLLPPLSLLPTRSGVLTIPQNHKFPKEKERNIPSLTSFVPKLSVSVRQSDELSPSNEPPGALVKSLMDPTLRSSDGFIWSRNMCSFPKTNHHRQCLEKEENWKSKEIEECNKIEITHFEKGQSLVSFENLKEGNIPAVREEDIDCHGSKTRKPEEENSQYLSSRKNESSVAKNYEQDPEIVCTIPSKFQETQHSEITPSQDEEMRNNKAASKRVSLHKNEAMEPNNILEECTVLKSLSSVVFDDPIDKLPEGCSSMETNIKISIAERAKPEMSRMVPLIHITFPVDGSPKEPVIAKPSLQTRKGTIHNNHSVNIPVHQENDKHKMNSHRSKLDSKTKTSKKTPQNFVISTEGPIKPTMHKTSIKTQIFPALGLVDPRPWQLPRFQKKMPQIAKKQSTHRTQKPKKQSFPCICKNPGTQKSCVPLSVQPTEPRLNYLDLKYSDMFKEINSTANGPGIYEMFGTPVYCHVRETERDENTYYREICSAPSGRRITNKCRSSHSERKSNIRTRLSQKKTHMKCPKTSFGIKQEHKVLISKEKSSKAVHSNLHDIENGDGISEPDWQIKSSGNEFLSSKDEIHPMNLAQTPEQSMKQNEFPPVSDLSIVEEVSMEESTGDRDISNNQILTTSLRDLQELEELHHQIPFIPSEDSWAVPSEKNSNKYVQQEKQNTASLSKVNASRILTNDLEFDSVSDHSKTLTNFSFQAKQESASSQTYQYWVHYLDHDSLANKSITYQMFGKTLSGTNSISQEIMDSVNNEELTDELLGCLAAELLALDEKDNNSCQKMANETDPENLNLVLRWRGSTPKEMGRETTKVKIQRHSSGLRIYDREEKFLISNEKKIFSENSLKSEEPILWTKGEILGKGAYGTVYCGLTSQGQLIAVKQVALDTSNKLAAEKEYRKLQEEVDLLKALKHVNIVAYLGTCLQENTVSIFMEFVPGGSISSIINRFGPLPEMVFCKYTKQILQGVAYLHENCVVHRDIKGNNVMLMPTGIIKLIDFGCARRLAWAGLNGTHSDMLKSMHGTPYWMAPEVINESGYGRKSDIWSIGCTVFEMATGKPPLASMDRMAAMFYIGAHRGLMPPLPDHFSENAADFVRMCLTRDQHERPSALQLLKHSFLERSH
Sequence of MLTK (human) (Q9NYL2 whole entry, looked up): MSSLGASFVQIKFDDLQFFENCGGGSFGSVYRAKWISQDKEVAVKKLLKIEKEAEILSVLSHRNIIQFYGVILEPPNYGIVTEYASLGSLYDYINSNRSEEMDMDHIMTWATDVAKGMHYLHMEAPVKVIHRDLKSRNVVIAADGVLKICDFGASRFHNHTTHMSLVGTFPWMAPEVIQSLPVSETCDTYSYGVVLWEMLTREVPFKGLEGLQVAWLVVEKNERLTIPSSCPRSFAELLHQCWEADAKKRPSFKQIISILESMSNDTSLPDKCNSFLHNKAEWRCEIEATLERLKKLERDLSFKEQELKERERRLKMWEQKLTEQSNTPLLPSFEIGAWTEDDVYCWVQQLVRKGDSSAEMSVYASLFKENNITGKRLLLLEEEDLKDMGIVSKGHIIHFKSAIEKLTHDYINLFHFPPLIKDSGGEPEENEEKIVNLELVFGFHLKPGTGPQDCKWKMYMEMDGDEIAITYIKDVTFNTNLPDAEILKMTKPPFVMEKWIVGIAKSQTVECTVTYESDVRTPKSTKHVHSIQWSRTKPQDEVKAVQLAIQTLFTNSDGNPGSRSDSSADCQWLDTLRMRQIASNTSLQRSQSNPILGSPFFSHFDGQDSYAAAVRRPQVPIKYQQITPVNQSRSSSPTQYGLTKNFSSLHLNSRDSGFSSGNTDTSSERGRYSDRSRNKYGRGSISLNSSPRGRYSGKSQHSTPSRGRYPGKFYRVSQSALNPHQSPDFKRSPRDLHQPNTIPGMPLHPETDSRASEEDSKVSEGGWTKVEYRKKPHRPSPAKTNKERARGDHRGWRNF

SMILES | kinase still bound, per cent of control (EPHA7 (human)) [%] | kinase still bound, per cent of control (MLTK (human)) [%] | kinase still bound, per cent of control (FGFR4 (human)) [%] | kinase still bound, per cent of control (MAP2K7 (human)) [%] | kinase still bound, per cent of control (MAP3K10 (human)) [%] | kinase still bound, per cent of control (CPK1 (P.falciparum)) [%] | kinase still bound, per cent of control (MARK1 (human)) [%] | kinase still bound, per cent of control (OXSR1 (human)) [%] | kinase still bound, per cent of control [1] [%] | kinase still bound, per cent of control (ACVR1B (human)) [%] | kinase still bound, per cent of control (MAPK7 (human)) [%] | kinase still bound, per cent of control (RIOK2 (human)) [%] | kinase still bound, per cent of control (STK3 (human)) [%] | kinase still bound, per cent of control (PHKG2 (human)) [%] | kinase still bound, per cent of control (PIK3C2B (human)) [%] | kinase still bound, per cent of control (NEK9 (human)) [%] | kinase still bound, per cent of control (BRSK1 (human)) [%] | kinase still bound, per cent of control (TIE1 (human)) [%] | kinase still bound, per cent of control (FLT1 (human)) [%] | kinase still bound, per cent of control (PIP4K2C (human)) [%] | other results
CCCS(=O)(=O)Nc1ccc(F)c(C(=O)c2c[nH]c3ncc(Cl)cc23)c1F | 99 | 6 | 100 | 83 | 87 | 0 | 74 | 24 | 100 | 98 | 65 | 3 | 21 | 52 | 84 | 66 | 55 | 61 | 28 | 100 | kinase still bound, per cent of control [2]: 100%; kinase still bound, per cent of control (CAMKK1 (human)): 75%; kinase still bound, per cent of control (TNK2 (human)): 8.2%; kinase still bound, per cent of control (MAPK12 (human)): 100%; kinase still bound, per cent of control (IRAK3 (human)): 26%; kinase still bound, per cent of control (BMPR2 (human)): 67%; kinase still bound, per cent of control (YSK4 (human)): 29%; kinase still bound, per cent of control (PLK2 (human)): 83%; kinase still bound, per cent of control (MAP2K4 (human)): 6.6%; kinase still bound, per cent of control (RIPK2 (human)): 8.3%; kinase still bound, per cent of control (DDR2 (human)): 15%; kinase still bound, per cent of control (CAMKK2 (human)): 79%; kinase still bound, per cent of control (PIK3CD (human)): 84%; kinase still bound, per cent of control (DAPK3 (human)): 85%; kinase still bound, per cent of control (PLK3 (human)): 96%; kinase still bound, per cent of control (RPS6KA4 KD1 (human)): 85%; kinase still bound, per cent of control (GRK4 (human)): 100%; kinase still bound, per cent of control (PAK6 (human)): 45%; kinase still bound, per cent of control [3]: 0%; kinase still bound, per cent of control (SIK1 (human)): 2.6%
CNC(=O)Nc1ccc(-c2nc(N3CC4CCC(C3)O4)c3cnn(C4CCC5(CC4)OCCO5)c3n2)cc1 | 87 | 77 | 62 | 100 | 100 | 86 | 100 | 100 | 74 | 100 | 100 | 90 | 97 | 96 | 25 | 100 | 100 | 98 | 92 | 100 | kinase still bound, per cent of control [2]: 14%; kinase still bound, per cent of control (CAMKK1 (human)): 100%; kinase still bound, per cent of control (TNK2 (human)): 84%; kinase still bound, per cent of control (MAPK12 (human)): 54%; kinase still bound, per cent of control (IRAK3 (human)): 100%; kinase still bound, per cent of control (BMPR2 (human)): 83%; kinase still bound, per cent of control (YSK4 (human)): 100%; kinase still bound, per cent of control (PLK2 (human)): 100%; kinase still bound, per cent of control (MAP2K4 (human)): 90%; kinase still bound, per cent of control (RIPK2 (human)): 71%; kinase still bound, per cent of control (DDR2 (human)): 100%; kinase still bound, per cent of control (CAMKK2 (human)): 100%; kinase still bound, per cent of control (PIK3CD (human)): 5.7%; kinase still bound, per cent of control (DAPK3 (human)): 100%; kinase still bound, per cent of control (PLK3 (human)): 100%; kinase still bound, per cent of control (RPS6KA4 KD1 (human)): 90%; kinase still bound, per cent of control (GRK4 (human)): 100%; kinase still bound, per cent of control (PAK6 (human)): 100%; kinase still bound, per cent of control [3]: 100%; kinase still bound, per cent of control (SIK1 (human)): 86%
